These results are taken from patent US6906073B2, “Piperazine CCR-3 receptor antagonists” (Roche Palo Alto LLC, priority 2001, dated 2005).

For data set [1], the target named is T1, CCR-3 receptor (Homo sapiens, UniProt P51677).
T1 construct: expressed in transfected cells; host or cells: L1.2 (murine pre-B lymphoma line)
T1 sequence (P51677 1-355): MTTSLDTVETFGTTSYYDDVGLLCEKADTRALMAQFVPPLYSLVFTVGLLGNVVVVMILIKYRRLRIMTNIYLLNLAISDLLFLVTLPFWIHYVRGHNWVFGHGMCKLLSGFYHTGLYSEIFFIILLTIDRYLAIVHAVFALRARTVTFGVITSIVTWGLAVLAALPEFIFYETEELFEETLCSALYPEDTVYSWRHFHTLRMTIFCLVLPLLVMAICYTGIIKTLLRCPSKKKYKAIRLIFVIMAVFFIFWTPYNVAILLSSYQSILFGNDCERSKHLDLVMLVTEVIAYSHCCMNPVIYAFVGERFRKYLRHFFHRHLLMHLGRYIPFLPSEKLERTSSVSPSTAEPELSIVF
Put plainly: CCR-3 Receptor Binding Assay - In Vitro (inhibition of 125I eotaxin binding to CCR-3 L1.2 transfectant cells). The note with it: inhibition of binding of 125I eotaxin to CCR-3 L1.2 transfectant cells, 1 hour at room temperature. On the procedure:
CCR-3 Receptor Binding Assay—In Vitro
The CCR-3 antagonistic activity of the compounds of the invention was determined by their ability to inhibit the binding of ^125I eotaxin to CCR-3 L1.2 transfectant cells (see Ponath, P. D. et al., J. Exp. Med., Vol. 183, 2437-2448, (1996)).
The assay was performed in Costar 96-well polypropylene round bottom plates. Test compounds were dissolved in DMSO and then diluted with binding buffer (50 mM HEPES, 1 mM CaCl2, 5 mM MgCl2, 0.5% bovine serum albumin (BSA), 0.02% sodium azide, pH 7.24) such that the final DMSO concentration was 2%. 25 μl of the test solution or only buffer with DMSO (control samples) was added to each well, followed by the addition of 25 μl of ^125I-eotaxin ([…]) (NEX314, New England Nuclear, Boston, Mass.) and 1.5×10^5 of the CCR-3 L1.2 transfected cells in 25 μl binding buffer. The final reaction volume was 75 μl.
After incubating the reaction mixture for 1 hour at room temperature, the reaction was terminated by filtering the reaction mixture through polyethylenimine treated Packard Unifilter GF/C filter plate (Packard, Chicago, Ill.). The filters were washed four times with ice cold wash buffer containing 10 mm HEPES and 0.5M sodium chloride (pH 7.2) and dried at 65° C. for approximately 10 minutes. 25 μl/well of Microscint-20® scintillation fluid (Packard) was added and the radioactivity retained on the filters was determined by using the Packard TopCount®

Counter-ions that a name gives are not always drawn.

`O=C(Cc1cccs1)Nc1ccccc1N1CCN(Cc2ccc(Cl)c(Cl)c2)CC1` [compound 1, N-{2-[4-(3,4-dichloro-benzyl)-piperazin-1-yl]-phenyl}-2-thiophen-2-yl-acetamide] gave an IC50 in data set [1] of 200 µM.
As to `COc1cc(NC(=O)N[C@@H]2COC[C@H]2N2CCN(Cc3ccc(Cl)cc3)CC2)cc(OC)c1OC` (racemic) (as salt: hydrochloride) [compound 7, (±)-trans-1-{4-[4-(4-chlorobenzyl)-piperazin-1-yl]-tetrahydrofuran-3-yl}-3-(3,4,5-trimethoxyphenyl)urea dihydrochloride], the melting point was 190.8 to 204.3 °C.
In data set [1], `O=C(Nc1ccccc1N1CCN(Cc2ccc(Cl)c(Cl)c2)CC1)c1ccc(F)c(F)c1` [compound 2, N-{2-[4-(3,4-dichlorobenzyl)-piperazin-1-yl]-phenyl}-3,4-difluoro-benzamide] showed a 50% inhibitory concentration (IC50) of 36 µM.
With `Cc1ccc(C(=O)NC2CCCCC2N2CCN(Cc3ccc(Cl)c(Cl)c3)CC2)cc1` (centres unmarked) [compound 3, N-{2-[4-(3,4-Dichloro-benzyl)-piperazin-1-yl]-cyclohexyl}-4-methyl-benzamide], in data set [1], the half-inhibitory concentration (IC50) was 12.8 µM.
On the same count and under the same terms, under `COc1cc(NC(=O)N[C@@H]2COC[C@H]2N2CCN(Cc3ccc(Cl)cc3)CC2)cc(OC)c1OC` (racemic) [compound 7, (±)-trans-1-{4-[4-(4-chlorobenzyl)-piperazin-1-yl]-tetrahydrofuran-3-yl}-3-(3,4,5-trimethoxyphenyl)urea dihydrochloride] stands 0.11 µM.

What is called IC50 is the concentration needed to halve the response being measured. A higher IC50 goes with a need for much substance. What is called melting point is the temperature of the solid-liquid transition.
